What was measured:
[1] = target: T1, LOV-PAS-HK (full-length LOV-HK) (Brucella abortus, UniProt Q2YKK7)
T1 construct: gene BAB2_0652

[2] = target: T2, LOV-PAS (Brucella abortus, UniProt Q2YKK7)
T2 construct: gene BAB2_0652
T2 sequence (Q2YKK7 15-273 limits assumed): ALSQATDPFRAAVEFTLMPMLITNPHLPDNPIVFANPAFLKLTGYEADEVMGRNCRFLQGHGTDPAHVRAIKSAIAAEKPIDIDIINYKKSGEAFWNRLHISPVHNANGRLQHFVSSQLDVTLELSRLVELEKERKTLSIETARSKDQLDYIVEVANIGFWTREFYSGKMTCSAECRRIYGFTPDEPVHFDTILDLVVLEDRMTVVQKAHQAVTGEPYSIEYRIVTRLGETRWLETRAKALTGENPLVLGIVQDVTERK

T1 sequence (Q2YKK7 15-489 limits assumed): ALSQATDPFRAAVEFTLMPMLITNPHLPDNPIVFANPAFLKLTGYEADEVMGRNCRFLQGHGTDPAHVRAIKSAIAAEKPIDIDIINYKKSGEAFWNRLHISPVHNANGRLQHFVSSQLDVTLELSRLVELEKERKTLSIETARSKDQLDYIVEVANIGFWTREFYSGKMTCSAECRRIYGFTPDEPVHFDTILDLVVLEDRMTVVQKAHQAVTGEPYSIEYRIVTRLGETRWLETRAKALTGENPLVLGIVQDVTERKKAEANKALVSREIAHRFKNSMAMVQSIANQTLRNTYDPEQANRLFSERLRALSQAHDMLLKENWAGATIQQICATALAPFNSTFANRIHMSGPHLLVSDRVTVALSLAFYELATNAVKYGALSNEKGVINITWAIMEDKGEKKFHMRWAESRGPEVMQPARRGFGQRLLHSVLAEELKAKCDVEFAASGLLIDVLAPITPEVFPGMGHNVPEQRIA

SMILES: Cc1cc2nc3c(=O)[nH]c(=O)nc-3n(C[C@H](O)[C@H](O)[C@H](O)COP(=O)(O)O)c2cc1C [FMN]
- X-ray crystal structure 3.25 A [1]: the electron densities associated with the FMN chromophores are fused into the protein moiety
- X-ray crystal structure, 2.74 A (dark), 2.80 A (light) [2]: the FMN ligand is clearly separated from the protein moiety in the electron density map
